Key:
α-receptors = target: T1, α-receptors (Rattus norvegicus, UniProt P43140); assay: α-receptor blocking activity in isolated rat vas deferens (noradrenaline contraction); details: read-out: pA2 (α-receptor blocking activity) (converted)
T1 construct: from tissue; host or cells: isolated rat vas deferens
T1 sequence (P43140 1-466): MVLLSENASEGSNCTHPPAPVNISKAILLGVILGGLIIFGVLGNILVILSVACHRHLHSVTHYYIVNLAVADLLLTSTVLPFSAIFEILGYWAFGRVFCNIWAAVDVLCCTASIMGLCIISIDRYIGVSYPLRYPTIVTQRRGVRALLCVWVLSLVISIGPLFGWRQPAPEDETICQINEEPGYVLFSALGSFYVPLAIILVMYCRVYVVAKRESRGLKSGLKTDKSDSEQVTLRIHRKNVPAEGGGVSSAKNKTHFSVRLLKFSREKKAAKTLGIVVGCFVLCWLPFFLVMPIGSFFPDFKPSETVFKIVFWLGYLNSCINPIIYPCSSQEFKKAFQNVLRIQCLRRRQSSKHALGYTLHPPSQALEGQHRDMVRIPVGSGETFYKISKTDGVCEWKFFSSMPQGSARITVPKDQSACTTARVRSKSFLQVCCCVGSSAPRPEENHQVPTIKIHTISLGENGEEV
Experimental: α-receptor blocking activity was tested in isolated rat vas deferens. Noradrenaline administered to the organ bath induces a contraction in vas deferens by activating α-receptors. The ability of the test compounds to inhibit this noradrenaline response was studied. The α-receptor blocking activity was expressed as pA2 values. pA2 is defined as the negative logarithm of the concentration of an antagonist (in our case the test compounds) which leads to the fact that the dose of the agonist (in our case noradrenaline) has to be doubled in order to obtain the same effect of the agonist as that obtained without the antagonist present. Thus a high pA2 value indicates a high α-receptor blocking activity of a compound.

cardiac β-receptors = target: T2, cardiac β-receptors (Felis catus, UniProt Q9TST6); assay: β-blockade of isoprenaline heart rate response, reserpinized anesthetized cat; type: in vivo; details: iv, 0.012-51.2 μmol/kg, isoproterenol 0.1 μg/kg i.v.
T2 construct: from tissue; host or cells: heart of the living, reserpinized, anesthetized cat (in vivo heart rate)
Experimental: The new compounds have valuable pharmacological properties. Thus they block cardiac β-receptors, which is shown at the determination of the antagonism of tachycardia after an intravenous injection of 0.1 ug/kg of 1-isoproterenol sulphate on an anaesthetized cat at an intravenous dose of 0.012-51.2 umol/kg. The compounds are heart selective with regard to their β-blocking activity.
The agents of the present invention were tested as regards their biological properties. All compounds were thereby tested in anesthetized cats (males and females weighing 2.5-3.5 kg) pretreated with reserpine (5 mg/kg bodyweight administered intramuscularly) about 16 hours before the experiments. The animals were pretreated with reserpine in order to eliminate the endogenous sympathetic control of heart rate and vascular smooth muscle tone. The cats were anesthetized with pentobarbital (30 mg/kg bodyweight administered i.p.) and artificially ventilated with room air. A bilateral vagotomy was performed in the neck. […] Vascular resistance in one hind leg was recorded by an autoperfusion technique. […] Blockade of the heart rate and vascular resistance response to isoproterenol was calculated for each dose and expressed as percent decrease of the response obtained when isoproterenol was injected before any dose of the test compound. […]

heart rate = assay: Intrinsic beta mimetic activity on the heart, reserpinized cat; type: in vivo
Experimental: (§1) The agents of the present invention were tested as regards their biological properties. All compounds were thereby tested in anesthetized cats (males and females weighing 2.5-3.5 kg) pretreated with reserpine (5 mg/kg bodyweight administered intramuscularly) about 16 hours before the experiments. The animals were pretreated with reserpine in order to eliminate the endogenous sympathetic control of heart rate and vascular smooth muscle tone. The cats were anesthetized with pentobarbital (30 mg/kg bodyweight administered i.p.) and artificially ventilated with room air. A bilateral vagotomy was performed in the neck. Blood pressure was obtained from a cannulated carotid artery and heart rate was registered from a cardiotachometer, triggered by the electrocardiogram (ECG). Vascular resistance in one hind leg was recorded by an autoperfusion technique. Intrinsic beta mimetic activity on the heart was seen as increased heart rate after drug administration. The test compounds were given intravenously in logarithmically increasing doses. […] Blockade of the heart rate and vascular resistance response to isoproterenol was calculated for each dose and expressed as percent decrease of the response obtained when isoproterenol was injected before any dose of the test compound. […]

[1] = target: T3, β-receptors (vascular resistance in one hind leg) (Felis catus, UniProt Q9TST5); assay: β-blockade of isoprenaline peripheral resistance response (hind leg), reserpinized anesthetized cat; type: in vivo; details: iv, 0.012-51.2 μmol/kg, isoproterenol 0.1 μg/kg i.v.
T3 construct: from tissue; host or cells: hind-leg vasculature of the living, reserpinized, anesthetized cat (in vivo)
Experimental: as §1

T2 sequence (Q9TST6 whole entry): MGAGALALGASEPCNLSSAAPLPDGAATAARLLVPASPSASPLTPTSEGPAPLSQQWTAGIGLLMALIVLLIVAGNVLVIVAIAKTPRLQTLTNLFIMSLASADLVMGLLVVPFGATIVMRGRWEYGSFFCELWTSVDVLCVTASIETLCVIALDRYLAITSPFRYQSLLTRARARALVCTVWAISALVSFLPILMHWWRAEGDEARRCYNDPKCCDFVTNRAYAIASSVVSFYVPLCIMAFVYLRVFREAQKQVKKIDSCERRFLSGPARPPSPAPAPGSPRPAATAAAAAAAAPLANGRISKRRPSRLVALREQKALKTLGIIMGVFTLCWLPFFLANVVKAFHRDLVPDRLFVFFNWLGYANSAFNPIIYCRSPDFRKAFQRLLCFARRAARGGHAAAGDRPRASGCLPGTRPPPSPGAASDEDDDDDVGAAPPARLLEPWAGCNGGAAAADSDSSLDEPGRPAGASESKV
T3 sequence (Q9TST5 whole entry): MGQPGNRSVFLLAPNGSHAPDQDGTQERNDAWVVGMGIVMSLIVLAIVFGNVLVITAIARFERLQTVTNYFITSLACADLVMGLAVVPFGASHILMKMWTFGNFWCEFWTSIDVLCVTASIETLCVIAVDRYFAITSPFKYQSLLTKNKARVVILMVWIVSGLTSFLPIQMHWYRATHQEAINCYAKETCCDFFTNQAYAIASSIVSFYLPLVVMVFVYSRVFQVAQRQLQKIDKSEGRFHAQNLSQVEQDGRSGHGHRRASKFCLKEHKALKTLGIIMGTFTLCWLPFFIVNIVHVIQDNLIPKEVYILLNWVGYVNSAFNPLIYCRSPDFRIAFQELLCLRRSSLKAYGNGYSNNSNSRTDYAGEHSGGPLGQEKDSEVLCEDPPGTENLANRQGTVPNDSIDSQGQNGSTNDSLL

With `COCCNC(=O)COc1ccccc1OCC(O)CNCCOc1ccc(O)cc1` (centres unmarked) [3-[2-(4-hydroxyphenoxy)ethylamino]-1-o-methoxyethylaminocarbonylmethoxyphenoxy-propanol-2] the Kb (α-receptors) was 3.16 µM, the ED50 (cardiac β-receptors) was 0.05 µmol/kg and the Emax (heart rate; Felis catus, iv, % of isoprenaline) was 0%. For the same compound, the “Intrinsic activity Δbeats/min.” value (heart rate; i.v.) was 0 beats/min and the ED50 [1] was 1.8 µmol/kg.

— patent US4263323A, “β-Receptor blocking compounds and treatment of cardiovascular disorders therewith” (priority 1979, dated 1981)
